Experimental data as given in patent publication US20240122922A1, “Methods Of Treating Cancer With Transmembrane Protein 16F (TMEM16F) Inhibitors” (Institute For Cancer Research d/b/a The Research Institute …, priority 2022, published 2024).
Entries after “also recorded” stand apart in the source; their conditions may differ.

B1: annexin V: recombinant label-free Annexin-V (#ab157342, Abcam) masking cell surface phosphatidylserine (protein, UniProt P08758 2-320, looked up)
Annexin A5: AQVLRGTVTDFPGFDERADAETLRKAMKGLGTDEESILTLLTSRSNAQRQEISAAFKTLFGRDLLDDLKSELTGKFEKLIVALMKPSRLYDAYELKHALKGAGTNEKVLTEIIASRTPEELRAIKQVYEEEYGSSLEDDVVGDTSGYYQRMLVVLLQANRDPDAGIDEAQVEQDAQALFQAGELKWGTDEEKFITIFGTRSVSHLRKVFDKYMTISGFQIEETIDRETSGNLEQLLLAVVKSIRSIPAYLAETLYYAMKGAGTDDHTLIRVMVSRSEIDLFNIRKEFRKNFATSLYSMIKGDTSGDYKKALLLLCGEDD

How the values were obtained:
[1] = tested on: KPC3 syngeneic pancreatic tumor grafts; assay: Treatment of orthotopic syngeneic KPC3 pancreatic tumors with oral ANO6 inhibitors; format: in vivo, C57Bl/6J mice; conditions: oral gavage 5 days/week for 3 weeks; niclosamide 150 mg/kg, clofazimine 50 mg/kg; vs vehicle, p<0.001
Method: (§1) Syngeneic 5×10^5 KPC3 cells were orthotopically injected to the tail of pancreas of anesthetized C57Bl/6J mice. Treatment with ANO6 inhibitors niclosamide or clofazimine commenced on 2 days post-implantation: niclosamide (150 mg/kg of mouse body weight, Cayman #10649), clofazimine (50 mg/kg, MedChem Express), or corn oil (50 mg/kg, Sigma #C8267) as vehicle were given by oral gavages 5 days/week for 3 weeks. Mice were kept under defined-flora pathogen-free conditions. Mice of both genders, equally distributed, were used for the experiments.

DsRed-tagged KPC3 tumors = assay: In vivo fluorescent LDL (BODIPY-cholesterol) imaging by multiphoton microscopy; parameters: species or system mice
Method: as §1

[2] = tested on: KPCN349 cells co-cultured with CAFs; assay: Trogocytosis assay in vitro by flow cytometry (CAF membrane uptake by PDAC cells); format: cell-based, murine; conditions: 100 nM, CAFs pre-treated 2 hours and maintained in co-culture, vs vehicle, p<0.05
Method: To label cellular membranes, pairs of lipophilic fluorescent dyes were used according to the manufacturer's instructions in the following combinations: 1) adherent CAFs were stained 1 μM PKH67 (Sigma-Aldrich), Panc-1 were stained in suspension with 10 μM CellTracker™ orange CMTMR (Thermo Fisher Scientific); 2) CAFs labeled with 0.5 μM BODIPY-cholesterol (Topfluor Cholesterol, #DO-016545, Avanti Polar Lipids) dissolved in 0.1 mM methyl-b-cyclodextrin (#C4555, Sigma) with 2 μM cholesterol (#C8667, Sigma-Aldrich) in MEM media at 37° C. for 30 minutes in suspension; murine or human (Panc-1) PDAC cells were stained in suspension with CPD670 (#65-0840-85, Thermo Fisher Scientific). After labeling, CAFs were co-incubated for indicated time intervals with PDAC cells in 12-well culture plates at ratio of 2:1 in half DMEM media. Co-cultures of CAFs and PDAC cells for 3 minutes on ice were used as negative controls. In experiments assessing the effect of extracellular calcium on trogocytoisis, cells were co-cultured in Phosphate Buffered Saline (PBS) containing calcium and magnesium (D8662, Sigma-Aldrich) or in PBS without calcium and magnesium (D8537, Sigma-Aldrich). After co-cultures, cells were collected and pelleted by centrifugation (5 minutes, 1500 rpm), resuspended in 10% formalin (Sigma) for 10 minutes at RT, washed and re-suspended in PBS/1% BSA. Trogocytosis was measured as the acquisition of CAF-specific fluorescence in PDAC cells by flow cytometry on MACSQuant® VYB Flow Cytometer (Miltenyi Biotec) or FACScan analyzer (BD Biosciences). Analysis of dual staining was done using FlowJo software (10.8.1, BD Biosciences). Live cells were gated based on FSC/SSC parameters, then single cells were gated based on SSC-A/SSC-H.
For interference with trogocytosis, CAFs were pre-treated prior to co-cultures for 2 hours with recombinant label-free 100 nM Annexin-V (#ab157342, Abcam) or 100 nM Zn-DPA (Molecular Targeting Technologies) and subsequently maintained in co-cultures at the same concentrations.

| Molecule | weights of orthotopic syngeneic pancreatic tumors [1] | accumulation of intratumoral vesicles containing BODIPY-cholesterol (DsRed-tagged KPC3 tumors; 19 hours post injection, niclosamide vs vehicle) | accumulation of BODIPY-cholesterol from intravenously administered LDL in DsRed-tagged KPC3 cancer cells (intratumoral to peri-tumoral fluorescence) (DsRed-tagged KPC3 tumors; niclosamide 150 mg/kg/day, 10, 16 and 19 hours post injection, vehicle tumors showed 6-fold enrichment at 16 hours) | uptake of BODIPY-labeled CAF membranes by KPCN349 cells [2] | uptake of BODIPY-labeled CAF membranes by KPCN349 cells ([2]; listed as bis-Zn-dipicolylamine) |
| --- | --- | --- | --- | --- | --- |
| CC(C)/N=c1\cc2n(-c3ccc(Cl)cc3)c3ccccc3nc-2cc1Nc1ccc(Cl)cc1 [clofazimine] | significant reduction of tumor weights | – | – | – | – |
| O=C(Nc1ccc([N+](=O)[O-])cc1Cl)c1cc(Cl)ccc1O [niclosamide] | significant reduction of tumor weights | dramatically reduced | suppressed accumulation | – | – |
| [Zn].c1ccc(CNCc2ccccn2)nc1 [Zn-DPA, zinc-dipicolylamine] | – | – | – | significantly reduced the uptake | antagonizes uptake |
| B1 | – | – | – | significantly reduced the uptake; also recorded: antagonizes uptake | – |
